Active and inactive are the calls of the source. The rule behind the calls is not given here.
Assays:
Type in all cases: cell-based
[1] = test system: F9; test: Activation of RAR in mouse F9 cells assessed as increase in CYP26A1 mRNA level at 10 uM after 48 hrs by RT-PCR analysis in presence of RAR antagonist BMS493
[2] = molecular target: T1, Retinoic acid receptor (Homo sapiens) (UniProt P13631+P10826+P10276); test: Activation of RAR in human HepG2 cells assessed as increase in CAR mRNA level at 10 uM after 24 hrs by RT-PCR analysis
[3] = molecular target: T2, Peroxisome proliferator-activated receptor gamma (Homo sapiens) (UniProt P37231); test: Agonist activity at PPARgamma (unknown origin) expressed in HEK293 cells assessed as transcriptional activation at 1 to 25 uM after 40 hrs by luciferase reporter gene assay
T2 sequence (whole entry): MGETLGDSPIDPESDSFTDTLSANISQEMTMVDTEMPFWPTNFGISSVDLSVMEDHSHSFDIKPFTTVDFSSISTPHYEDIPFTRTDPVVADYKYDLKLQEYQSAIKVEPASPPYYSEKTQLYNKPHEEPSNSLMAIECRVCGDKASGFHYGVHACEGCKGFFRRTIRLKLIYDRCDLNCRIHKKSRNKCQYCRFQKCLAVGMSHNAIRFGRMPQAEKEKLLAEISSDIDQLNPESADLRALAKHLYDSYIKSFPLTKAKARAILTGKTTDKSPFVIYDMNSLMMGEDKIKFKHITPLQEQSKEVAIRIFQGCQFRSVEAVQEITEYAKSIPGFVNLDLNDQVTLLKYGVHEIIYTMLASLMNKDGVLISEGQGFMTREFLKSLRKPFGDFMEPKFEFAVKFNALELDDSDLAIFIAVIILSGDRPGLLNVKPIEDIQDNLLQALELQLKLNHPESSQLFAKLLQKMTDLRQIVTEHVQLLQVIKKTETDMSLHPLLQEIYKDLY

[4] = molecular target: T3, Peroxisome proliferator-activated receptor delta (Homo sapiens) (UniProt Q03181); test: Agonist activity at PPARdelta (unknown origin) expressed in HEK293 cells assessed as transcriptional activation at 1 to 25 uM after 40 hrs by luciferase reporter gene assay
T3 sequence (whole entry): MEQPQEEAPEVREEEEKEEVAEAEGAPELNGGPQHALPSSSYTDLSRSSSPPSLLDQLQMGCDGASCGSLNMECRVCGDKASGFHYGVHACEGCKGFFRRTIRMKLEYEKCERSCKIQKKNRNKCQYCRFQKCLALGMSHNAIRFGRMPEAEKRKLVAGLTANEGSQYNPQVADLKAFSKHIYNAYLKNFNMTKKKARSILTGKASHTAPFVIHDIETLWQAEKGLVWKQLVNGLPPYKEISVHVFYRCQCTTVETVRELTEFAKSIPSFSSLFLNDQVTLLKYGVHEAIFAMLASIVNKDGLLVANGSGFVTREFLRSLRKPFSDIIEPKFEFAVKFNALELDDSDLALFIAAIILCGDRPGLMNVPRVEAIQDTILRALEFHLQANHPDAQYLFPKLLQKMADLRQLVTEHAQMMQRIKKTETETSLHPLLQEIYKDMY

[5] = molecular target: T4, Retinoic acid receptor alpha (Homo sapiens) (UniProt P10276); test: Agonist activity at human RARalpha expressed in HEK293 cells assessed as transcriptional activation at 0.1 to 50 uM after 40 hrs by luciferase reporter gene assay
T4 sequence (whole entry): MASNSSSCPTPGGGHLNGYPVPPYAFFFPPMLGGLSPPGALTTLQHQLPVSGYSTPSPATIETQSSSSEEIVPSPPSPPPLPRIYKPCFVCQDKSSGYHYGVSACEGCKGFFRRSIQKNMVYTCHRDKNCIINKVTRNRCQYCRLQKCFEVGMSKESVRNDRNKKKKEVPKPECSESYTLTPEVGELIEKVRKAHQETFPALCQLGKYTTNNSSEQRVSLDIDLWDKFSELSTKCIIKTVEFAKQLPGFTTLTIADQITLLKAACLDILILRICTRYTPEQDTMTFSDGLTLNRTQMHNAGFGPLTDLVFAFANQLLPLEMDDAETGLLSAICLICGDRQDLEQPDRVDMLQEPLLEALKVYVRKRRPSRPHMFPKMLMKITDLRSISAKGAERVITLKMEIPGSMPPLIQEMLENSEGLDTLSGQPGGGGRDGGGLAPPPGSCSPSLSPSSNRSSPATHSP

[6] = test system: F9; test: Activation of RAR in mouse F9 cells assessed as increase in CYP26A1 mRNA level at 10 uM after 48 hrs by RT-PCR analysis
[7] = molecular target: T5, Oxysterols receptor LXR-alpha (Homo sapiens) (UniProt Q13133); test: Agonist activity at LXR-alpha (unknown origin) expressed in HEK293 cells assessed as transcriptional activation at 1 to 25 uM after 40 hrs by luciferase reporter gene assay
T5 sequence (whole entry): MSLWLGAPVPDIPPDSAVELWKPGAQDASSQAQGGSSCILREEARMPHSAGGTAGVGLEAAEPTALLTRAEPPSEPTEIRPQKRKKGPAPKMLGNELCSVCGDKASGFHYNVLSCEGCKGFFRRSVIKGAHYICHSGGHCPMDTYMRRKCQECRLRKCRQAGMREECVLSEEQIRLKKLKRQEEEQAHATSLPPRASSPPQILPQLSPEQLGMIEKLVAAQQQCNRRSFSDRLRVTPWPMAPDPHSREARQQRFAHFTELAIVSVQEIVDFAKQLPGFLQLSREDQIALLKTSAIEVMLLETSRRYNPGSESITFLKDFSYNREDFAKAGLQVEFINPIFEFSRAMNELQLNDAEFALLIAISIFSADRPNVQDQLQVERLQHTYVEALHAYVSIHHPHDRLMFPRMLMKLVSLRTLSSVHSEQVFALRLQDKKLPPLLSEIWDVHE

[8] = molecular target: T1, Retinoic acid receptor (Homo sapiens); test: Induction of RAR-mediated differentiation of human HL60 cells at 1 uM after 4 days by NBT assay; details: HL-60
[9] = test system: F9; test: Activation of RAR in mouse F9 cells assessed as increase in CYP26A1 mRNA level at 0.01 uM after 48 hrs by RT-PCR analysis
[10] = molecular target: T4, Retinoic acid receptor alpha (Homo sapiens); test: Agonist activity at human RARalpha expressed in HEK293 cells assessed as transcriptional activation at 1 to 100 uM after 40 hrs by luciferase reporter gene assay
[11] = molecular target: T4, Retinoic acid receptor alpha (Homo sapiens); test: Agonist activity at human RARalpha expressed in HEK293 cells assessed as transcriptional activation at 1 to 100 uM after 40 hrs by luciferase reporter gene assay in presence of RAR antagonist LE135
[12] = molecular target: T6, Retinoic acid receptor RXR-alpha (Homo sapiens) (UniProt P19793); test: Agonist activity at human RXRalpha expressed in HEK293 cells assessed as transcriptional activation up to 100 uM after 40 hrs by luciferase reporter gene assay
T6 sequence (whole entry): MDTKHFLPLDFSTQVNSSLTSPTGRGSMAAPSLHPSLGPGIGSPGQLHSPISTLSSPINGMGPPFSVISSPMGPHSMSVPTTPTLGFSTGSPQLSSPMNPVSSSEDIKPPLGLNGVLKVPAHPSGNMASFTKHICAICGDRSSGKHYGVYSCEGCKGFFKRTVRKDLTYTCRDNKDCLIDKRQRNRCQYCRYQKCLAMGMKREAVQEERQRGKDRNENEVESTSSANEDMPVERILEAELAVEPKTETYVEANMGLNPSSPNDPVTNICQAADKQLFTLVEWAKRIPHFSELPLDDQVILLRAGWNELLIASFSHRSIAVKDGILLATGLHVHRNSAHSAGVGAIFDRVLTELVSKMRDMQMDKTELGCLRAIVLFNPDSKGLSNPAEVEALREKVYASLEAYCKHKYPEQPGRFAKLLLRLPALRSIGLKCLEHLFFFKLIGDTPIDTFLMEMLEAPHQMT

[13] = molecular target: T1, Retinoic acid receptor (Homo sapiens); test: Induction of RAR-mediated differentiation of human HL60 cells at 1 to 25 uM after 4 days by NBT assay; details: HL-60

T1 sequence (P10826 whole entry, looked up, one chain of several): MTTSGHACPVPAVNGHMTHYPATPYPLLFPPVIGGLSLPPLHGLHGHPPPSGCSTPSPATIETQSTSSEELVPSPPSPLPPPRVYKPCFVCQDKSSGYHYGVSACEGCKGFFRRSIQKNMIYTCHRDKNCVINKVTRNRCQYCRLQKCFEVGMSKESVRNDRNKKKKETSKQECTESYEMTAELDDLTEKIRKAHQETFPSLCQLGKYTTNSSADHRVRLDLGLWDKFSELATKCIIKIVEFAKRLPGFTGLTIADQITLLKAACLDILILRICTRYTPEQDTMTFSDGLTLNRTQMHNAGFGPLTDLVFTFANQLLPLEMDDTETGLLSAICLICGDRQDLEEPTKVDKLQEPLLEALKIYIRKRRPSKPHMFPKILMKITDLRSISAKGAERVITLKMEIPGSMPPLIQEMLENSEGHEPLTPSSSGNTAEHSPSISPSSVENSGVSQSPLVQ
T1 sequence (P13631 whole entry, looked up, one chain of several): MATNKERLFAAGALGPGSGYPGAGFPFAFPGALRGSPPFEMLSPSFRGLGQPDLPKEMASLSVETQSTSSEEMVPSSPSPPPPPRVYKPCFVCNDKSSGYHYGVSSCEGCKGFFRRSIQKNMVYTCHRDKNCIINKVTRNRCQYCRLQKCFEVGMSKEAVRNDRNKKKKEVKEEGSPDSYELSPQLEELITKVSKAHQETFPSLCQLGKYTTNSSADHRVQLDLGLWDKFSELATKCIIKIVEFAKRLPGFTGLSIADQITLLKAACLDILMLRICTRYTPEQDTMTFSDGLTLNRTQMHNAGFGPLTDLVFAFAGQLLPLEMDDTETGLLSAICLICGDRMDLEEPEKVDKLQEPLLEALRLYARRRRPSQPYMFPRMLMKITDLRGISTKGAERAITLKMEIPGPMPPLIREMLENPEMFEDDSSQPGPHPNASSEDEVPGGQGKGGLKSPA

Row | Compound | Activity [1] | Activity [2] | Activity [3] | Activity [4] | Activity [5] | Activity [6] | Activity [7] | Activity [8] | Activity [9] | Activity [10] | Activity [11] | Activity [12] | Activity [13]
1 | C=C[C@@]1(C)C=C2CC[C@@H]3[C@](C)(CCC[C@@]3(C)C(=O)O)[C@H]2CC1 | inactive | Active | inactive | inactive | Active | Active | inactive | Active |  |  |  |  | 
2 | C=C1C[C@@]23CC[C@H]4[C@@](C)(CCC[C@@]4(C)C(=O)O)[C@@H]2CC[C@]1(O)C3 |  |  |  |  | inactive |  |  |  |  |  |  |  | 
3 | CC1=C(/C=C/C(C)=C/C=C/C(C)=C/C(=O)O)C(C)(C)CCC1 |  |  |  |  |  |  |  | Active | Active |  |  |  | 
4 | COC(=O)[C@H](C)NC(=O)[C@]1(C)CCC[C@]2(C)c3ccc(C(C)C)cc3CC[C@@H]12 |  |  |  |  | inactive |  |  |  |  |  |  |  | 
5 | CC(C)C1=CC2=CC[C@@H]3[C@](C)(CCC[C@@]3(C)C(=O)O)[C@H]2CC1 | inactive | Active | Active | inactive | Active | Active | inactive | Active |  |  |  |  | 
6 | C=C[C@]1(C)C=C2CC[C@H]3[C@@](C)(CCC[C@@]3(C)C(=O)O)[C@@H]2CC1 | inactive | inactive | inactive | inactive | Active | Active | inactive |  |  | Active | inactive | inactive | Active

— ChEMBL document CHEMBL3286315, “Retinoic acid receptor agonist activity of naturally occurring diterpenes” (Bioorg Med Chem, 2014)
